# Data published in publication PMC8351955, “Targeting Mycobacterium tuberculosis response to environmental cues for the development of effective antitubercular drugs” (PLoS Biology, 2021).
# “And” between values parts separate entries of the source, which are not always exact repeats. Identical values can stand only once.
# How the values were obtained:
# [1] = system: WT Mtb (Erdman) in primary murine BMDMs; assay: Primary murine bone marrow-derived macrophage infection, CFU; assay type: cell-based, Mycobacterium tuberculosis; conditions: for CFU/ml in BMDMs, average: Fig 1I; for CFU/ml: Fig. 2E, 10 µM
# [2] = Mouse plasma protein binding; assay type: in vitro ADME
# Description: Assays examining mouse and human liver microsomal stability, kinetic aqueous solubility, mouse and human plasma protein binding and stability, and human cytochrome P450 inhibition characteristics of the compounds were run by BioDuro (San Diego, CA), using standard protocols as previously described [37]. hERG inhibition assays were also performed by BioDuro.
# CYP3A4/5 = assay: Human cytochrome P450 inhibition, 3A4/5; assay type: in vitro ADME; conditions: read-out: % inhibition of CYP 3A4/5
# [3] = system: macrophage phagosomal acidification in BMDMs; assay: Phagosomal maturation assay, carboxyfluorescein beads (pH readout); assay type: cell-based, mouse; conditions: for 490 nm/450 nm, Average: average of 5 replicates
# Description: Carboxyfluorescein (pH readout), DQ-BSA/Alexa Fluor 594 (AF594) (proteolysis readout), and BAC/AF594 (Cl^− readout) beads were generated essentially as previously described, except that 10,10′-Bis[3-carboxylpropyl]-9,9′-biacridinium dinitrate di-NHS ester (BAC-SE) was purchased from emp Biotech LLC. BMDMs were isolated from C57BL/6J mice (The Jackson Laboratory) and maintained as described above. A quantity of 2 × 10^5 macrophages/well were seeded into 96-well clear bottom black plates and utilized in assays 1 to 2 days post-seeding. […] Assay buffer consisted of PBS (pH 7.2), supplemented with 5% FBS, 5 mM dextrose, 1 mM CaCl2, 2.7 mM KCl, and 0.5 mM MgCl2 in the case of assays with the carboxyfluorescein or DQ-BSA/AF594 beads. For assays with the BAC/AF594 beads, assay buffer consisted of PBS (pH 7.2), supplemented with 5% FBS, 5 mM dextrose, 1 mM calcium acetate, 1.35 mM K2SO4, and 0.5 mM MgSO4 [9]. Sensor beads at approximately 2 to 5 beads/macrophage in appropriate assay buffer were finally added, with data acquisition on a Biotek Synergy H1 microplate reader with bottom read signal detection started within 2 to 3 minutes of bead addition. Excitation/emission wavelengths were 450 nm/520 nm and 490 nm/520 nm for carboxyfluorescein, 490 nm/520 nm for DQ-BSA, 365 nm/505 nm for BAC, and 590 nm/617 nm for AF594. Each experiment was run with a total of 3 to 5 replicate wells/condition, with temperature maintained at 37°C throughout the assay. Wells were read every 2 minutes for 2 hours for the carboxyfluorescein bead assays, every 2 minoutes for 4 hours for the DQ-BSA/AF594 bead assays, and every 1 minute for 2 hours for the BAC/AF594 bead assays. Analyses of the results were performed as previously described.
# [4] = system: Mtb growth in cholesterol media; parameters: method as in PubChem AID 1259343; conditions: ref PubChem AID 1259343; cited from earlier work
# Mtb = Mtb growth assay in cholesterol medium (OD600); conditions: for OD600: Fig. 2G
# Description: Bacterial growth was tracked by measuring OD600 every 3 days for 12 days. […] Bacterial growth was tracked by measurement of OD600 every 3 days over 12 days.
smiles,measurement,setting,value
"CCSc1ncc(CN2CCN(c3nc4ccccc4o3)CC2)cn1 [C6, 2-(4-((2-(ethylthio)pyrimidin-5-yl)methyl)piperazin-1-yl)benzo[d]oxazole]",Effect on bacterial load / Mtb growth in primary murine BMDMs,"[1]; 10 μM, 8-day infection time course, vs DMSO",significant decrease in bacterial load
same,"CFU/ml in BMDMs, average","[1]; 10 μM, day 2",153500 CFU/ml
same,"CFU/ml in BMDMs, average","[1]; 10 μM, day 4",188500 CFU/ml
same,"CFU/ml in BMDMs, average","[1]; 10 μM, day 6",283000 CFU/ml
same,"CFU/ml in BMDMs, average","[1]; 10 μM, day 8",322500 CFU/ml
same,CFU/ml,"[1]; day 2, average",426000 CFU/ml
same,CFU/ml,"[1]; day 2, individual replicates",406000 CFU/ml and 418000 CFU/ml and 454000 CFU/ml
same,CFU/ml,"[1]; day 4, average",573333 CFU/ml
same,CFU/ml,"[1]; day 4, individual replicates",580000 CFU/ml and 640000 CFU/ml and 500000 CFU/ml
same,CFU/ml,"[1]; day 6, average",746667 CFU/ml
same,CFU/ml,"[1]; day 6, individual replicates",700000 CFU/ml and 660000 CFU/ml and 880000 CFU/ml
same,CFU/ml,"[1]; day 8, average",1020000 CFU/ml
same,CFU/ml,"[1]; day 8, individual replicates",880000 CFU/ml and 1100000 CFU/ml and 1080000 CFU/ml
same,fraction unbound,[2],0.03
same,inhibition at 10 µM,CYP3A4/5,< 1%
same,Effect on macrophage phagosomal acidification,"[3]; 10 μM, uninfected BMDMs",did not alter
same,"490 nm/450 nm, Average",[3]; time 0 minutes,4.858
same,"490 nm/450 nm, Average",[3]; time 2 minutes,4.93
same,"490 nm/450 nm, Average",[3]; time 4 minutes,4.883
same,"490 nm/450 nm, single replicates (Rep 1-5)",[3]; time 6 minutes,4.9284 and 4.8623 and 4.895 and 4.851 and 4.867
same,"490 nm/450 nm, Average",[3]; time 6 minutes,4.881
same,"490 nm/450 nm, single replicates (Rep 1-5)",[3]; time 8 minutes,4.803 and 4.864 and 4.815 and 4.7957 and 4.8066
same,"490 nm/450 nm, Average",[3]; time 8 minutes,4.817
same,"490 nm/450 nm, single replicates (Rep 1-5)",[3]; time 10 minutes,4.783 and 4.786 and 4.81 and 4.727 and 4.764
same,"490 nm/450 nm, Average",[3]; time 10 minutes,4.774
same,"490 nm/450 nm, single replicates (Rep 1-5)",[3]; time 12 minutes,4.5604 and 4.6849 and 4.647 and 4.525 and 4.478
same,"490 nm/450 nm, Average",[3]; time 12 minutes,4.579
same,"490 nm/450 nm, single replicates (Rep 1-5)",[3]; time 14 minutes,4.45 and 4.492 and 4.497 and 4.303 and 4.234
same,"490 nm/450 nm, Average",[3]; time 14 minutes,4.395
same,"490 nm/450 nm, single replicates (Rep 1-5)",[3]; time 16 minutes,4.182 and 4.214 and 4.296 and 4.029 and 3.894
same,"490 nm/450 nm, Average",[3]; time 16 minutes,4.123
same,"490 nm/450 nm, single replicates (Rep 1-5)",[3]; time 18 minutes,3.914 and 3.991 and 4.055 and 3.796 and 3.692
same,"490 nm/450 nm, Average",[3]; time 18 minutes,3.89
same,"490 nm/450 nm, single replicates (Rep 1-5)",[3]; time 20 minutes,3.661 and 3.707 and 3.803 and 3.557 and 3.477
same,"490 nm/450 nm, Average",[3]; time 20 minutes,3.641
same,"490 nm/450 nm, single replicates (Rep 1-5)",[3]; time 22 minutes,3.443 and 3.455 and 3.57 and 3.319 and 3.292
same,"490 nm/450 nm, Average",[3]; time 22 minutes,3.416
same,"490 nm/450 nm, single replicates (Rep 1-5)",[3]; time 24 minutes,3.1867 and 3.242 and 3.389 and 3.087 and 3.065
same,"490 nm/450 nm, Average",[3]; time 24 minutes,3.194
same,"490 nm/450 nm, single replicates (Rep 1-5)",[3]; time 26 minutes,3.004 and 3.052 and 3.169 and 2.941 and 2.895
same,"490 nm/450 nm, Average",[3]; time 26 minutes,3.012
same,"490 nm/450 nm, single replicates (Rep 1-5)",[3]; time 28 minutes,2.852 and 2.904 and 3.023 and 2.803 and 2.7626
same,"490 nm/450 nm, Average",[3]; time 28 minutes,2.869
same,"490 nm/450 nm, single replicates (Rep 1-5)",[3]; time 30 minutes,2.719 and 2.762 and 2.859 and 2.651 and 2.679
same,"490 nm/450 nm, Average",[3]; time 30 minutes,2.734
same,"490 nm/450 nm, single replicates (Rep 1-5)",[3]; time 32 minutes,2.588 and 2.623 and 2.733 and 2.5744 and 2.581
same,"490 nm/450 nm, Average",[3]; time 32 minutes,2.62
same,"490 nm/450 nm, single replicates (Rep 1-5)",[3]; time 34 minutes,2.506 (2×) and 2.556 and 2.644 and 2.5507
same,"490 nm/450 nm, Average",[3]; time 34 minutes,2.552
same,"490 nm/450 nm, single replicates (Rep 1-5)",[3]; time 36 minutes,2.483 and 2.493 and 2.575 and 2.447 and 2.499
same,"490 nm/450 nm, Average",[3]; time 36 minutes,2.499
same,"490 nm/450 nm, single replicates (Rep 1-5)",[3]; time 38 minutes,2.411 and 2.458 and 2.4978 and 2.4066 and 2.452
same,"490 nm/450 nm, Average",[3]; time 38 minutes,2.445
same,"490 nm/450 nm, single replicates (Rep 1-5)",[3]; time 40 minutes,2.369 and 2.38 and 2.4986 and 2.406 and 2.442
same,"490 nm/450 nm, Average",[3]; time 40 minutes,2.419
same,"490 nm/450 nm, single replicates (Rep 1-5)",[3]; time 42 minutes,2.364 and 2.3783 and 2.434 and 2.346 and 2.427
same,"490 nm/450 nm, Average",[3]; time 42 minutes,2.3898
same,"490 nm/450 nm, single replicates (Rep 1-5)",[3]; time 44 minutes,2.319 and 2.337 and 2.405 and 2.355 and 2.4128
same,"490 nm/450 nm, Average",[3]; time 44 minutes,2.3655
same,"490 nm/450 nm, Average",[3]; time 46 minutes,2.351
same,"490 nm/450 nm, Average",[3]; time 48 minutes,2.35
same,"490 nm/450 nm, Average",[3]; time 50 minutes,2.351
same,"490 nm/450 nm, Average",[3]; time 52 minutes,2.342
same,"490 nm/450 nm, Average",[3]; time 54 minutes,2.342
same,"490 nm/450 nm, Average",[3]; time 56 minutes,2.334
same,"490 nm/450 nm, Average",[3]; time 58 minutes,2.337
same,"490 nm/450 nm, Average",[3]; time 60 minutes,2.3392
same,"490 nm/450 nm, Average",[3]; time 62 minutes,2.354
same,"490 nm/450 nm, Average",[3]; time 64 minutes,2.349
same,"490 nm/450 nm, Average",[3]; time 66 minutes,2.351
same,"490 nm/450 nm, Average",[3]; time 68 minutes,2.358
same,"490 nm/450 nm, Average",[3]; time 70 minutes,2.362
same,"490 nm/450 nm, Average",[3]; time 72 minutes,2.363
same,"490 nm/450 nm, Average",[3]; time 74 minutes,2.3781
same,"490 nm/450 nm, Average",[3]; time 76 minutes,2.3813
same,"490 nm/450 nm, Average",[3]; time 78 minutes,2.38
same,"490 nm/450 nm, Average",[3]; time 80 minutes,2.392
same,"490 nm/450 nm, Average",[3]; time 82 minutes,2.387
same,"490 nm/450 nm, Average",[3]; time 84 minutes,2.389
same,"490 nm/450 nm, Average",[3]; time 86 minutes,2.399
same,"490 nm/450 nm, Average",[3]; time 88 minutes,2.414
same,"490 nm/450 nm, Average",[3]; time 90 minutes,2.411
same,"490 nm/450 nm, Average",[3]; time 92 minutes,2.4274
same,"490 nm/450 nm, Average",[3]; time 94 minutes,2.4259
same,"490 nm/450 nm, Average",[3]; time 96 minutes,2.426
same,"490 nm/450 nm, Average",[3]; time 98 minutes,2.438
same,"490 nm/450 nm, Average",[3]; time 100 minutes,2.447
same,"490 nm/450 nm, Average",[3]; time 102 minutes,2.452
same,"490 nm/450 nm, Average",[3]; time 104 minutes,2.453
same,"490 nm/450 nm, Average",[3]; time 106 minutes,2.461
same,"490 nm/450 nm, Average",[3]; time 108 minutes,2.469
same,"490 nm/450 nm, Average",[3]; time 110 minutes,2.47
same,"490 nm/450 nm, Average",[3]; time 112 minutes,2.479
same,"490 nm/450 nm, Average",[3]; time 114 minutes,2.475
same,"490 nm/450 nm, Average",[3]; time 116 minutes,2.485
same,"490 nm/450 nm, Average",[3]; time 118 minutes,2.494
same,"490 nm/450 nm, Average",[3]; time 120 minutes,2.492
same,Call in screen for inhibition of Mtb growth in cholesterol media,[4],positive for growth inhibition
same,Inhibition of Mtb growth in cholesterol media,"Mtb; 10 μM, OD600 over 12 days",inhibited Mtb growth
same,OD600,"Mtb; day 3, average",0.06
same,OD600,"Mtb; day 3, individual replicates",0.06
same,OD600,"Mtb; day 6, average",0.09333
same,OD600,"Mtb; day 6, individual replicates",0.1 (2×) and 0.08
same,OD600,"Mtb; day 9, average",0.12
same,OD600,"Mtb; day 9, individual replicates",0.12 and 0.1 and 0.14
same,OD600,"Mtb; day 12, average",0.1533
same,OD600,"Mtb; day 12, individual replicates",0.14 (2×) and 0.18
